Laboratory results from PMC2828353 (Journal of inherited metabolic disease, 2008).

Biological target: T1, DMGDH (His6-DMGDH, mature human dimethylglycine dehydrogenase) (Homo sapiens, UniProt Q9UI17)
T1 sequence (Q9UI17 51-866): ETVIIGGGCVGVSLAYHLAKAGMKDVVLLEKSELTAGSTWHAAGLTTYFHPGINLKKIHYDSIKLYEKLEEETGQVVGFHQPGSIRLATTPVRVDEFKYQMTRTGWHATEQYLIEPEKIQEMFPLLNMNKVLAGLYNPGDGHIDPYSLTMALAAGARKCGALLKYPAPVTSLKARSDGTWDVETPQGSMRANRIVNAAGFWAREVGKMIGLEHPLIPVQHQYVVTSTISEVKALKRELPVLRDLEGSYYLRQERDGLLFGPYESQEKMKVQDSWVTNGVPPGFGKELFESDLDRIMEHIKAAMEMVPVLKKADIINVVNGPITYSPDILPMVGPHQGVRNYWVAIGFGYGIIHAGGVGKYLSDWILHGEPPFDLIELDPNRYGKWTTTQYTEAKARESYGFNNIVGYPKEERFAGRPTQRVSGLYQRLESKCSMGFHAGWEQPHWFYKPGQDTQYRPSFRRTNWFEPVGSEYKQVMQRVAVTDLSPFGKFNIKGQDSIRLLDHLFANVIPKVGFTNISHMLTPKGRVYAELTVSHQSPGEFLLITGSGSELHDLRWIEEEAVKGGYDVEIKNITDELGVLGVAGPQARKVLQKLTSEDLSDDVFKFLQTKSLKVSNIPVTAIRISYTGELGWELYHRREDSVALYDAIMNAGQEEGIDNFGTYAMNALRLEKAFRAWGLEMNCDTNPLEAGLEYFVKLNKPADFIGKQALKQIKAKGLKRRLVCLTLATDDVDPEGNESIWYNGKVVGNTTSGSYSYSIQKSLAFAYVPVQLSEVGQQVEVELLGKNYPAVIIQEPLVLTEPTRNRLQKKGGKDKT
Assay: ferricenium reduction at […] nm
Type: biochemical
Settings: dimethylglycine as substrate, Hepes pH 7.5, 25°C

SMILES: Nc1nc2c(c(=O)[nH]1)N[C@@H](CNc1ccc(C(=O)N[C@@H](CCC(=O)O)C(=O)O)cc1)CN2 [tetrahydrofolate]
- % decrease in Vmax at 4 μmol/L: ~ 25%
